Data from patent US6630120B1, “Agents to increase the uptake of pharmaceuticals and diagnostic substances into solid tumors” (priority 1999, dated 2003).
Where two headings read alike, the source gives them in different places.

Assays:
[1] = tested on: implanted tumor and lung; test: Retention of 14C-carboplatin in solid tumors and in lung; format: in vivo, rat; conditions: FIG. 8
Method: The carboplatin was administered two minutes into a five minute Cereport™ infusion.

[2] = tested on: MAT B-III metastatic lung tumors; test: Animal survival with MAT B-III metastatic lung tumors after carboplatin and Cereport; format: in vivo, rat; conditions: FIG. 13
Method: MAT B-III cells were introduced into the lungs of 12 female F-344 Fisher rats by intrajugular injections of either 1×10^5 or 1×10^6 cells in 200 μl suspensions. The cells and animals were maintained and handled as described in Example 1. At various times following the injections, the number of surface tumor colonies on the lungs was assessed. Tumors were visually counted by injecting India ink into the trachea of the animals.
Finally, the effects of the administration of carboplatin and Cereport™ on the survival of animals who had been subjected to the implantation of MAT B-III metastatic lung surface tumors was assessed. In this study, 1×10^6 MAT B-III cells as a 200 μl suspension were implanted by intrajugular injection in 54 male Fischer rats. Sixteen days later, indwelling cannulae were inserted in the previously implanted jugular vein. On days 16 and 23, the animals received a continuous infusion of 5 mg/kg of carboplatin over a 15 minute period. Immediately following the 15 minute carboplatin infusion, the animals received a 10 minute continuous infusion of either saline or Cereport (1.5 μg/kg). The survival rates for the animals were then monitored.

[3] = tested on: Walker 256 tumor; conditions: FIG. 9; male Wistar rats; 15 min carboplatin then 10 min Cereport 1.0 μg/kg
Method: Walker 256 cells (ATCC CCL-38) (1×10^7) were implanted into the subcutaneous space of the rear flank of male Wistar rats to create a solid tumor in situ in the same manner as previously described for the MAT B-III cells. Eight days later, the animals received a 15 minute i.v. infusion of ^14C-carboplatin (100 μCi/kg) followed immediately by a 10 minute infusion of either saline or Cereport™ at 1.0 μg/kg. Following the saline or Cereport™ infusion, the tumor was rapidly removed and dissected into inner and outer regions. The amount of radioactivity of each tumor region was determined by scintillation counts.

[4] = tested on: MAT B (III) rat mammary adenocarcinoma tumor implanted in the flank
Method: A series of studies were carried out on rat hosts in which suspended tumor cells had been subcutaneously implanted in the flank of the animal to create a solid tumor in situ. The effects of the administration of Cereport™ on the incorporation of ^14C-carboplatin into the tumor were evaluated.
Male Fischer rats (170-220 g; Taconic Farms, Germantown, N.Y.) were used in these studies. Animals were housed in pairs in polypropylene cages with free access to food and water. The vivarium was maintained on a 12 h light: 12 h dark cycle with a room temperature of 22±1° C. and relative humidity level of 50±5%.
The MAT B (III) cell line (ATCC CRL-1666), a rat ascites mammary adenocarcinoma, was used to produce peripheral tumors upon implantation in rats. Cells were grown and maintained at 37° C. in a 95% air/5% CO2 humidified atmosphere using McCoy's medium 5A (GIBCO) supplemented with 20 mM HEPES, 1/2X Antibody-Antimycotic, and 10% heat-inactivated Fetal Bovine Serum.
Immediately prior to implantation, MAT B-III cells were suspended in 1.2% methyl cellulose at a density of 5×10^6/ml. 200 μl of this suspension (1×10^6 cells) was injected subcutaneously into the flank of each animal using a 22G needle.
One week after tumor implantation, and under urethane anesthesia (1.8 g/kg; i.p.), cannulae (PE50, Clay Adams, Bectin Dickinson, Sparks, Md.) were placed in the jugular vein for drug administration and both femoral arteries for the measurement of physiological parameters.
Cereport™ (RMP-7, Alkermes, Inc., Cambridge, Mass.) and ^14C-carboplatin or -dextran (SA=144 μCi/mg and 1.08 μCi/mg respectively) were dissolved in sterile 0.9% saline and infused intravenously using a syringe pump at a rate of 0.05 ml/min over the entire administration period. Using the human clinical protocol as a basis, ^14C-carboplatin or dextran (100 μCi/kg) was infused for 15 minutes followed immediately by a 10 minute infusion of Cereport™. Throughout the experiment, body temperature was maintained normothermic (37.0±1.0° C.) and arterial blood gases, pH, and blood pressure were monitored. Animals with physiological values outside the normal ranges were not used.
At the end of the drug administration protocol, rats were sacrificed and the peripheral tumor was rapidly removed. A 1-2 mm thick slice was cut from the center of tumor. The slice was then divided into two equal parts comprising the center of the dissected piece (inner tumor) and the outside edge (outer tumor). Each tumor sample was weighed and placed into a scintillation vial and the amount of radioactivity (nCi/g) was computed for each region using scintillation counts as a measure of the radioactivity.

[5] = target: angiotensin converting enzyme (ACE) (Homo sapiens, UniProt P12821); conditions: general statement, no method given; cited from earlier work
Sequence of angiotensin converting enzyme (ACE) (P12821 30-1306, species assumed): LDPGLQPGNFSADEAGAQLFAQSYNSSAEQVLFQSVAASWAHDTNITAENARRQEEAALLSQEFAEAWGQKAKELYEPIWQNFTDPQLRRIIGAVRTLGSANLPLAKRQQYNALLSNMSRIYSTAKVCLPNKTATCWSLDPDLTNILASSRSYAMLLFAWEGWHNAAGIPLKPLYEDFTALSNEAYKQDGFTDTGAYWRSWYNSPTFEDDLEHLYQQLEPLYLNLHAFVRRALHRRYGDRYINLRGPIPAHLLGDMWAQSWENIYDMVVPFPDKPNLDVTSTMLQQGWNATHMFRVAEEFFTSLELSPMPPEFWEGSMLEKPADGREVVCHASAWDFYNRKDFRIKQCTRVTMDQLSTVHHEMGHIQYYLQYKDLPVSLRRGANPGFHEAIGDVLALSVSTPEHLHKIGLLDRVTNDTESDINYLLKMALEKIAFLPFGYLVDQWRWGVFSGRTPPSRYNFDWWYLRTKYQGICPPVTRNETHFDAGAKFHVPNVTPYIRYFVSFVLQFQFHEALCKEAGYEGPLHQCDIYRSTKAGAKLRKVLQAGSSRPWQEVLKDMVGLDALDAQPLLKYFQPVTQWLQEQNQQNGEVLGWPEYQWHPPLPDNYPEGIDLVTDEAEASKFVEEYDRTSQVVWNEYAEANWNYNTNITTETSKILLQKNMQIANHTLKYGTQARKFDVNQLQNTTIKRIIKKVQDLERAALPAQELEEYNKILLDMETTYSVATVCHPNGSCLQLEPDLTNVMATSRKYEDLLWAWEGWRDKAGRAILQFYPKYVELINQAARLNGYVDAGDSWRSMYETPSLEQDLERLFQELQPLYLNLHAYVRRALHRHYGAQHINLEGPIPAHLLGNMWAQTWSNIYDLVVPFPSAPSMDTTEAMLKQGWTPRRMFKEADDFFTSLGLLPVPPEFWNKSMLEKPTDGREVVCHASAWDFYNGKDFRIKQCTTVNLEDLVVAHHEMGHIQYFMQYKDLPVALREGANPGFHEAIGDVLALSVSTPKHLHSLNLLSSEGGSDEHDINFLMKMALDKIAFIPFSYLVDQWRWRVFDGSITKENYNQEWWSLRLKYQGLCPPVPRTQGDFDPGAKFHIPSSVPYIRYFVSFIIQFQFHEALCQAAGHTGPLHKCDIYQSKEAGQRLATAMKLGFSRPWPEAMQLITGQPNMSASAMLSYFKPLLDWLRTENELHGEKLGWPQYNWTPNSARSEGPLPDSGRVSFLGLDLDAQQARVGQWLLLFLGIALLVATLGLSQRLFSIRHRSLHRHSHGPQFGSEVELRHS

[6] = tested on: implanted tumor; conditions: FIG. 10
Method: In some instances, Cereport™ is administered in addition to carboplatin. The carboplatin was infused for 15-minutes followed immediately by a 10 minute infusion of Cereport™ at 1.5 μg/kg.

[7] = tested on: MAT B-III tumor implanted into the liver; conditions: FIG. 6
Method: MAT B-III cells (1×10^6) were implanted directly into the liver of male Fischer rats using a 25G needle and 1 ml tuberculin syringe. Fourteen days later, the animals received a 15 minute i.v. infusion of ^14C-carboplatin (100 μCi/kg) followed immediately by a 10 minute infusion of either saline or Cereport™ at 1.0 μg/kg. Following the saline or Cereport™ infusion, the liver was rapidly removed. The tumor was dissected free of the surrounding liver tissue and divided into inner and outer regions. A 1 mm strip of liver that immediately surrounded the tumor (inner ring) and the adjacent 1 mm strip of liver (outer ring) were also removed and assayed. In addition, an equivalent strip of liver from the untreated lobe, was removed and assayed. This liver strip served as a control.

[8] = tested on: MAT B-III tumor in rear flank or mammary fat pads; conditions: FIG. 5; female Fischer rats; 15 min carboplatin then 10 min Cereport 1.0 μg/kg
Method: MAT B-III cells (1×10^6) were implanted in two anatomically distinct sites in female Fischer rats. The tumor cells were implanted into either the subcutaneous space of the rear flank or orthotopically into mammary fat pads. Seven days later, the animals received a 15 minute i.v. infusion of ^14C-Carboplatin (100 μCi/kg) followed immediately by a 10 minute infusion of either saline or Cereport™ at 1.0 μg/kg. Following the saline or Cereport™ infusion, the tumor was rapidly removed and dissected into inner and outer regions. The amount of radioactivity of each tumor region was determined by scintillation counts.

[9] = tested on: implanted tumor and various organs; conditions: FIG. 7; Cereport 1 μg/kg; carboplatin bolus two minutes into five minute Cereport infusion
Method: The carboplatin was administered as a bolus two minutes into a five minute Cereport™ infusion.

[10] = tested on: implanted tumor; conditions: FIG. 14; Cereport infusion for 10 minutes at 1 μg/kg
Excerpt: Interstitial fluid pressure is a severe impediment for administered substances into tumor interstitial spaces from the bloodstream.

[11] = eighth day, carboplatin plus Cereport 1.5 μg/kg

With `N.N.O=C([O-])C1(C(=O)[O-])CCC1.[Pt+2]` [carboplatin] the “retention of carboplatin in tumor tissue” value ([1]; after Cereport administration, carboplatin two minutes into five minute Cereport infusion) was “at least 90 minutes”, the “retention of carboplatin in lung” value ([1]; after the initial uptake following Cereport administration) was “not retained” and the “prolongation of survival versus no carboplatin” value ([2]; carboplatin 5 mg/kg by itself (followed by saline) on days 16 and 23) was “approximately 10 days”.
In the case of “arginine-proline-hydroxyproline-glycine-thienylalanine-serine-proline-4-Me-tyrosineψ(CH2NH)arginine [Cereport™]”, the “carboplatin uptake into inner and outer region of Walker 256 tumor” value [3] is reported as “significantly taken up”, the “carboplatin uptake into inner tumor and outer tumor” value ([4]; FIG. 1, carboplatin bolus two minutes into a ten minute Cereport infusion, three Cereport infusion amounts, vs no Cereport) is reported as “significantly taken up” and the “carboplatin uptake into inner tumor and outer tumor” value ([4]; FIG. 2, carboplatin bolus two minutes into a five minute Cereport infusion, Cereport 0.5 μg/kg) is reported as “not significantly taken up”. For the same molecule, the “carboplatin uptake into inner tumor and outer tumor” value ([4]; FIG. 2, carboplatin bolus two minutes into a five minute Cereport infusion, Cereport 0.75 μg/kg) was “significantly taken up”, the “carboplatin uptake into inner tumor and outer tumor” value ([4]; FIG. 2, carboplatin bolus two minutes into a five minute Cereport infusion, Cereport 1.0 μg/kg) was “significantly taken up” and the “carboplatin uptake into inner tumor and outer tumor” value ([4]; FIG. 2, carboplatin bolus two minutes into a five minute Cereport infusion, Cereport 1.75 μg/kg) was “significantly taken up”. The “carboplatin uptake into inner tumor and outer tumor” value ([4]; FIG. 2, carboplatin bolus two minutes into a five minute Cereport infusion, Cereport 2.5 μg/kg) was “significantly taken up”, the “carboplatin uptake into inner tumor and outer tumor” value ([4]; FIG. 2, carboplatin bolus two minutes into a five minute Cereport infusion, Cereport 5.0 μg/kg) was “not significantly taken up” and the “carboplatin uptake into inner tumor and outer tumor” value ([4]; FIG. 3, carboplatin infused 15 minutes prior to Cereport, Cereport 0.36 μg/kg) was “possible exception”. For the same molecule, the “carboplatin uptake into inner tumor and outer tumor” value ([4]; FIG. 3, carboplatin infused 15 minutes prior to Cereport, all Cereport doses other than 0.36 μg/kg) was “significantly taken up”, the “dextran (MW 70 kDa) uptake into inner tumor and outer tumor” value ([4]; FIG. 4, dextran infused 15 minutes prior to Cereport, three Cereport infusion amounts, vs no Cereport) was “significantly taken up” and the “degradation by angiotensin converting enzyme (ACE)” value [5] was “not significantly degraded”. The “regression of the implanted tumor in comparison to carboplatin alone” value ([6]; 15 min carboplatin then 10 min Cereport 1.5 μg/kg) was “markedly cause regression”, the “tumor size relative to size if Cereport had not been administered with the carboplatin” value [6, 11] was “approximately one half” and the “tumor size relative to size if no carboplatin had been administered” value [6, 11] was “approximately one third”. The “carboplatin uptake into tumor implanted in the liver” value ([7]; 15 min carboplatin then 10 min Cereport 1.0 μg/kg) was “significantly taken up”, the “carboplatin uptake into liver tissue adjacent to the tumor” value ([7]; inner and outer ring liver strips, Cereport 1.0 μg/kg) was “does not have a significant effect” and the “carboplatin uptake into control strip of liver” value ([7]; strip from untreated lobe, Cereport 1.0 μg/kg) was “does not have a significant effect”. The “additional extension of survival profile beyond carboplatin alone” value ([2]; carboplatin 5 mg/kg followed by Cereport 1.5 μg/kg on days 16 and 23) was “approximately 10 days”, the “carboplatin uptake into implanted tumor located in the flank” value [8] was “significantly taken up” and the “carboplatin uptake into implanted tumor located in the mammary pad” value [8] was “significantly taken up”. For the same molecule, the “carboplatin uptake in tumor tissue compared with heart, lung and liver” value [9] was “far surpasses”, the “carboplatin uptake into heart, lung and liver” value [9] was “some uptake” and the “decrease of interstitial fluid pressure in implanted tumors” value [10] was “up to 40%”.
